In brackets after ≈: the same amount, converted by molar mass.
What was measured:
[1] = Parent vs. metabolite levels in plasma after oral dosing in rats; format: in vivo; details: oral 20 mg/kg, based on AUC(0-∞), 10 plasma samples over 12 hours, vs 4″-debenzylated metabolite
Procedure: Pharmacokinetic properties of compounds having three non-hydrogen substituents at the alpha-position of the ester (i.e., a tri-substituted ester) were further examined. A compound having a 4″-tri-substituted ester moiety (Compound 14) was compared to a di-substituted control compound. The compounds were dosed orally, 20 mg/kg, in rats.
Pharmacokinetic properties of compounds having a 4″-benzyl moiety were further examined. A compound having a 4″-halobenzyl moiety (Compound 10) was compared to a compound having an unsubstituted 4″-benzyl moiety. The compounds were dosed orally, 20 mg/kg, in rats.

[2] = tested on: E. faecalis ATCC29212; assay: Broth microdilution MIC; format: cell-based; details: Enterococcus faecalis, 35° C., approximately 20 hours
Procedure: (§1) Minimum inhibitory concentration (“MIC”) values for the isolates were determined using a broth microdilution method. The wells of a standard 96-well microdilution plate (Costar 3795, Corning Inc., Corning, N.Y.) were filled with 150 μL of an appropriate diluent. For test compounds supplied as powders, Column 1 was filled with 300 μL of either the investigational or comparator agents at the appropriate stock concentration (40× the highest test concentration). A Biomek 200 was used to make eleven 2-fold serial dilutions to create a “mother plate”. For compounds supplied as DMSO stocks, compounds were diluted to 50× the highest test concentrations and 2-fold serial dilutions were made manually.
(§2) For compounds supplied as solids, “daughter plates” were loaded with 185 μL using the Multidrop 384. These daughter plates were prepared on the Biomek F/X instrument which transferred 5 μL of drug solution from each well of the mother plate to each corresponding well of each daughter plate in a single step. For compounds supplied as DMSO stock, daughter plates were filled with 90 μL of media and 2 μL of drug solution from each well of the mother plate was added to each corresponding well manually.
(§3) A suspension of standardized inoculum for each organism, equivalent to a 0.5 McFarland standard, was diluted 1:10 in Mueller Hinton II broth resulting in a final concentration of approximately 5×10^5 CFU/mL during testing. Inocula were transferred to compartments of sterile reservoirs divided by length. The Biomek 2000 was used to inoculate all plates. Daughter plates were placed on the Biomek 2000 in reverse orientation so that plates were inoculated from low to high drug concentration. The Biomek 2000 delivered 10 μL of standardized inoculum into each well of the appropriate daughter plate. The final concentration of DMSO (if used as a solvent) in the test wells was 2.5%.
(§4) Plates were stacked 3 high, covered with a lid on the top plate, placed into plastic bags, and incubated at 35° C. for approximately 20 hours. […] MIC values were read where visible growth of the organism was inhibited.

[3] = tested on: S. epidermis ATCC49134; assay: Broth microdilution MIC; format: cell-based; details: Staphylococcus epidermidis, 35° C., approximately 20 hours
Procedure: as §1, §2, §3, §4

[4] = tested on: H. influenza ATCC49247; assay: Broth microdilution MIC; format: cell-based; details: Haemophilus influenzae, 35° C., approximately 20 hours
Procedure: as §1, §2, §3, §4

[5] = tested on: S. aureus ATCC29213; assay: Broth microdilution MIC; format: cell-based; details: Staphylococcus aureus, 35° C., approximately 20 hours
Procedure: as §1, §2, §3, §4

[6] = tested on: S. pneumonia ATCC49619; assay: Broth microdilution MIC; format: cell-based; details: Streptococcus pneumoniae, 35° C., approximately 20 hours
Procedure: as §1, §2, §3, §4

[7] = Pharmacokinetic study, oral dosing in Sprague-Dawley rats (AUC/D); format: in vivo; details: dosed orally in rats; dose-normalized plasma AUC
Procedure: (§5) Compounds were dosed orally to Sprague-Dawley rats, using appropriate formulations and doses. Serial blood samples were collected at selected time points post-dosing. Plasma was separated from the blood by centrifugation. 25 μL of plasma (sample, standard or QC) was combined with 25 μL of internal standard and 250 μL acetonitrile. Following vortexing to mix, the plates were centrifuged to separate the precipitated proteins. A 50 μL aliquot of the supernatant was transferred to a clean 96-well plate and diluted with 100 μL 0.1% formic acid. Stock standards were prepared in DMSO, with intermediate dilutions in acetonitrile:water (50:50, by volume). Samples were analyzed by LC-MS. The drug level curves were used to calculate dose-normalized area under the curve (AUC/D) data, which are reported as μg-hr/mL per mg/kg.

[8] = tested on: Staphylococcus aureus ATCC 25923; assay: Agar disc diffusion assay (zone of inhibition); format: cell-based; details: 10 μg on 7 mm paper disc (antibacterial standard)
Procedure: Antibacterial tests were performed on a series of tylosin A derivatives via the ‘agar disc diffusion’ assay. This assay is employed to determine the sensitivity of pathogens to chemical entities under investigation and is a standardized procedure outlined in 1961 by the World Health Organization.
Bacteria tested were a standard gram positive organism; Staphylococcus aureus ATCC 25923 (available from the American Type Culture Collection).
Colonies of bacteria are dispensed into liquid Mueller-Hinton II broth (available from Becton, Dickinson and Company), agitated and then streaked onto prepared Mueller-Hinton agar plates. Bacteria were allowed to grow for 16 hours at 37 degrees C. A sterile loupe was used to select 4-5 isolates from the cultures thus grown, and dispensed into Mueller-Hinton broth. […]
To obtain a dose response curve against Staphylococcus aureus, 20 μL (20 nanomoles) of each tylosin A derivative to be tested as obtained from the company compound repository at 1 mM stock solution in DMSO was dispensed onto a 7 mm blank paper disc (available from BBL, Le Pont du Claire, France). […] At this time, the ‘zone of inhibition’ around each 7 mm paper disc (inclusive of the disc itself) was measured and recorded in Table 6 below.

[9] = Pharmacokinetic study, oral dosing in BALB/c mice (AUC/D); format: in vivo; details: dosed orally in mice; when Compound 43 was dosed, levels of Compound 19 were measured; when Compound 46 was dosed, levels of Compound 10
Procedure: as §5, with “Alternatively, compounds” for “Compounds”, “BALB/c mice,” for “Sprague-Dawley rats,”
When Compound 43 was dosed, levels of Compound 19 were measured; when Compound 46 was dosed, levels of Compound 10 were measured. Thus, Compounds 43 and 46 serve as prodrugs for Compounds 19 and 10, respectively. Administration of 4′″-modified prodrugs provided greater exposure to the 4′″ deacylated metabolite as compared to administration of the corresponding metabolite itself. […]

Work on `CC[C@H]1OC(=O)C[C@@H](O)[C@H](C)[C@@H](O[C@@H]2O[C@H](C)[C@@H](O[C@H]3C[C@@](C)(O)[C@@H](OCc4ccccc4)[C@H](C)O3)[C@H](N(C)C)[C@H]2O)[C@@H](CC=O)C[C@@H](C)C(=O)/C=C/C(C)=C/[C@@H]1CO[C@@H]1O[C@H](C)[C@@H](O)[C@@H](OC)[C@H]1OC` [Compound G, Tylosin A 4″ O-Benzyl] yielded a Parent % [1] of 95%, an MIC [2] of 2 µg/mL (≈ 1.99 µM) and an MIC [3] of 2 µg/mL (≈ 1.99 µM). The MIC [4] was 16 µg/mL (≈ 15.9 µM), the MIC [5] was 4 µg/mL (≈ 3.98 µM) and the MIC [6] was 0.25 µg/mL (≈ 0.248 µM). The AUC/D [7] was 0.05 μg-hr/mL per mg/kg.
For Gentamicin, the Zone of inhibition [8] was 23 mm.
`CC[C@H]1OC(=O)C[C@@H](O)[C@H](C)[C@@H](O[C@@H]2O[C@H](C)[C@@H](O[C@H]3C[C@@](C)(O)[C@@H](O)[C@H](C)O3)[C@H](N(C)C)[C@H]2O)[C@@H](CC=O)C[C@@H](C)C(=O)/C=C/C(C)=C/[C@@H]1CO[C@@H]1O[C@H](C)[C@@H](O)[C@@H](OC)[C@H]1OC` [Tylosin A, 2-((4R,5S,6S,7R,9R,11E,13E,15R,16R)-6-(((2R,3R,4R,5S,6R)-5-(((2S,4R,5S,6S)-4,5-dihydroxy-4,6-dimethyltetrahydro-2H-pyran-2-yl)oxy)-4-(dimethylamino)-3-hydroxy-6-methyltetrahydro-2H-pyran-2-yl)oxy)-16-ethyl-4-hydroxy-15-((((2R,3R,4R,5R,6R)-5-hydroxy-3,4-dimethoxy-6-methyltetrahydro-2H-pyran-2-yl)oxy)methyl)-5,9,13-trimethyl-2,10-dioxooxacyclohexadeca-11,13-dien-7-yl)acetaldehyde] gave an AUC/D [9] of 0.0054 μg-hr/mL per mg/kg, an MIC [2] of 1 µg/mL (≈ 1.09 µM) and an MIC [3] of 1 µg/mL (≈ 1.09 µM). For the same compound, the MIC [4] was 16 µg/mL (≈ 17.5 µM), the MIC [5] was 2 µg/mL (≈ 2.18 µM) and the MIC [6] was 0.25 µg/mL (≈ 0.273 µM). It also gave an AUC/D [7] of 0.0097 μg-hr/mL per mg/kg.

Source: patent US20160200757A1, “TYLOSIN A ANALOGS AND DERIVATIVES” (AbbVie Inc., priority 2014, published 2016)
